# Values quoted from earlier work in patent US20200261422A1, “METHODS FOR […] […] HUMAN PATIENTS USING I[…]-2 […]” (Massachusetts Institute of Technology, priority 2019, published 2020).
# Experiments:
# [1] = system: effects of dexmedetomidine (α2 adrenergic receptor agonist); details: intramuscular injection; dexmedetomidine e.g. DEXDOMITOR and DEXDOMITOR 0.1
# [2] = in vivo
terminal elimination half-life [2],SMILES,time to reverse the effects of dexmedetomidine [1] [min]
–,"CCC1(c2cnc[nH]2)Cc2ccccc2C1 [atipamezole, 4-(2-ethyl-2,3-dihydro-1H-inden-2-yl)-1H-imidazole]",5 to 10
about 2 hours,"Cc1cccc([C@H](C)c2cnc[nH]2)c1C [dexmedetomidine, Dexmedetomidine]",–
